The results in this text go back to ChEMBL document CHEMBL1201862, “PubChem BioAssay data set” (2004).

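Test compounds were applied to cells in 96-well plates for 48 hours at 5 doses. The concentration for 50% growth inhibition is given as GI50.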 Active and inactive are the calls of the source. Cut-off read from the data, not from the text of the source: active = GI50 up to about 1.1 µM and inactive = higher. Some results are limits rather than exact numbers.

Some test systems named below: SNB-75; SNB-78; HCC 2998; SN12C; SK-MEL-5; CAKI-1; NCI-H226; KM12; OVCAR-4; IGROV-1; 786-0; HOP-92; HCT-116; LOX IMVI; SR; A549; TK-10; NCI-H522; MDA-N; MCF7.
What all share (experiment): NCI anticancer screen, dose series, 48 h

Take `CCC1C(=O)OCc2c1cc1n(c2=O)Cc2ccccc2-1` (stereo unspecified): the GI50 with SNB-75 is > 100 µM (inactive); with SNB-78, > 100 µM (inactive); in the assay with HCC 2998 it was > 100 µM (inactive); in the assay on SN12C, > 100 µM (inactive); in the assay with SK-MEL-5 it was > 100 µM (inactive); in the assay with CAKI-1 it was 34.2 µM (inactive). The GI50 with NCI-H226, in the assay on KM12, with OVCAR-4, in the assay on IGROV-1, with 786-0 and with HOP-92 was > 100 µM (inactive) in each case. Moreover, the GI50 in the assay with HCT-116, in the assay on LOX IMVI, with SR, in the assay with A549 and in the assay on TK-10 was > 100 µM (inactive) in each case.
`COc1ccc(C2=Nc3ccccc3SC(C)C2)cc1` (stereo unspecified): the GI50 in the assay on SNB-75, in the assay with SNB-78, in the assay with HCC 2998, with SN12C, in the assay on CAKI-1 and with NCI-H226 was > 100 µM (inactive) each time. Also, the GI50 was 32.2 µM (inactive) in the assay on KM12; > 100 µM (inactive) in the assay with OVCAR-4; > 100 µM (inactive) with IGROV-1; > 100 µM (inactive) in the assay on 786-0; > 100 µM (inactive) with HOP-92; 18 µM (inactive) in the assay on HCT-116. The GI50 in the assay with LOX IMVI was 38.4 µM (inactive); with A549, > 100 µM (inactive); in the assay with NCI-H522, > 100 µM (inactive); with TK-10, > 100 µM (inactive).
Regarding `COc1ccc(C2C(Cl)C(=O)N2n2cnc3ccccc3c2=O)cc1` (stereo unspecified), the GI50 is 29.4 µM (inactive) in the assay with SNB-75; > 100 µM (inactive) in the assay with SNB-78; > 100 µM (inactive) in the assay on HCC 2998; > 100 µM (inactive) in the assay with SN12C; 87.1 µM (inactive) with SK-MEL-5; 82.8 µM (inactive) with CAKI-1. For the same compound, the GI50 was > 100 µM (inactive) in the assay on NCI-H226; > 100 µM (inactive) with KM12; 33.3 µM (inactive) in the assay on OVCAR-4; > 100 µM (inactive) with IGROV-1; 46.9 µM (inactive) with 786-0; 54.6 µM (inactive) with HCT-116. The GI50 with LOX IMVI is 77.6 µM (inactive); in the assay with SR, 33 µM (inactive); in the assay with A549, > 100 µM (inactive); with NCI-H522, 89.3 µM (inactive); in the assay with TK-10, 98.6 µM (inactive).
Consider `COc1ccc(OC)c(CCc2cc(OC)c(OC)cc2C)c1`, for which the GI50 is 16.8 µM (inactive) in the assay with SNB-75; 7.52 µM (inactive) in the assay on SNB-78; 27.5 µM (inactive) in the assay with HCC 2998; 81.3 µM (inactive) in the assay on SN12C; 1.62 µM (inactive) with SK-MEL-5; 52 µM (inactive) in the assay on CAKI-1. In addition, the GI50 with KM12 was 0.63 µM (active); with OVCAR-4, 8.2 µM (inactive); in the assay on IGROV-1 it was 8.47 µM (inactive); with 786-0, 38.7 µM (inactive); in the assay on A549, 29.3 µM (inactive); with NCI-H522, 3.65 µM (inactive). Further, the GI50 with TK-10 was 89.7 µM (inactive).
Regarding `COC(=O)C(=O)C(/C(=N/N)C(=O)Nc1ccccc1C(N)=O)c1nc2ccc([N+](=O)[O-])cc2nc1O` (stereo unspecified), the GI50 in the assay with SNB-78 was > 100 µM (inactive); in the assay on HCC 2998, > 100 µM (inactive); with SN12C it was > 100 µM (inactive); with SK-MEL-5, > 100 µM (inactive); with CAKI-1, > 100 µM (inactive); in the assay on NCI-H226 it was 29.3 µM (inactive). Also, the GI50 in the assay with KM12, in the assay on OVCAR-4, in the assay on IGROV-1, in the assay on 786-0, in the assay with HCT-116 and with LOX IMVI was > 100 µM (inactive) each time. The GI50 in the assay on SR, with A549, with NCI-H522 and with TK-10 was > 100 µM (inactive) in each case.
For the compound `CC(=O)c1c(C)[n+]([O-])c2cc(C)c(C)cc2[n+]1[O-]`, the GI50 in the assay with SNB-75, in the assay on SNB-78, in the assay with HCC 2998, in the assay with SN12C, with SK-MEL-5 and with CAKI-1 was > 100 µM (inactive) throughout. Besides, the GI50 in the assay on NCI-H226, in the assay on KM12, with OVCAR-4, in the assay on IGROV-1, with 786-0 and in the assay on LOX IMVI was > 100 µM (inactive) throughout. Moreover, the GI50 with A549, in the assay with NCI-H522 and in the assay on TK-10 was > 100 µM (inactive) throughout.
In the case of `Nc1nc2c(ncn2CCOC(c2ccccc2)P(=O)(O)O)c(=O)[nH]1` (stereo unspecified), the GI50 in the assay with SNB-75, in the assay with SNB-78, in the assay with HCC 2998, with SN12C, in the assay with SK-MEL-5 and with CAKI-1 was > 100 µM (inactive) each time. In addition, the GI50 in the assay with NCI-H226, in the assay on KM12, with IGROV-1, with 786-0, in the assay with HCT-116 and in the assay with LOX IMVI was > 100 µM (inactive) each time. Moreover, the GI50 in the assay on SR, with A549, in the assay with NCI-H522 and in the assay on TK-10 was > 100 µM (inactive) in each case.
With `O=c1[nH]c2nc3ccccc3c(=O)n2nc1Cc1ccccc1`, the GI50 in the assay with SNB-75, with SNB-78, in the assay on HCC 2998, with SN12C, in the assay with SK-MEL-5 and in the assay with CAKI-1 was > 100 µM (inactive) each time. Besides, the GI50 with NCI-H226 is 94.6 µM (inactive); in the assay with KM12 it was > 100 µM (inactive); in the assay with OVCAR-4, 28.3 µM (inactive); in the assay with IGROV-1, 45.1 µM (inactive); with 786-0 it was > 100 µM (inactive); with HCT-116 it was > 100 µM (inactive). The GI50 in the assay on LOX IMVI was > 100 µM (inactive); with SR, > 100 µM (inactive); in the assay on A549, > 100 µM (inactive); in the assay with NCI-H522, 98.2 µM (inactive).
Take `NC(=O)NNC(=O)CCn1[nH]c(=O)c(Cl)c(Cl)c1=O`: the GI50 with SNB-75, in the assay with SNB-78, with HCC 2998, in the assay on SN12C, in the assay with SK-MEL-5 and in the assay on CAKI-1 was > 100 µM (inactive) throughout. For the same compound, the GI50 in the assay on NCI-H226, in the assay with OVCAR-4, in the assay on IGROV-1, in the assay with 786-0, in the assay on HOP-92 and with HCT-116 was > 100 µM (inactive) in each case. The GI50 in the assay with LOX IMVI, in the assay with A549, in the assay on NCI-H522 and in the assay with TK-10 was > 100 µM (inactive) throughout.
As to `C/C(=C\C(C)COCc1ccccc1)[C@H](COCc1ccccc1)OCc1ccccc1` (stereo partly specified), the GI50 was 80.2 µM (inactive) in the assay on SNB-75; > 100 µM (inactive) with SNB-78; > 100 µM (inactive) in the assay on HCC 2998; > 100 µM (inactive) in the assay on SN12C; 37.6 µM (inactive) with SK-MEL-5; > 100 µM (inactive) in the assay with NCI-H226. Moreover, the GI50 in the assay with KM12 was > 100 µM (inactive); in the assay with OVCAR-4, 63.2 µM (inactive); in the assay on IGROV-1, > 100 µM (inactive); in the assay on 786-0 it was > 100 µM (inactive); in the assay with HOP-92 it was 10.4 µM (inactive); in the assay on HCT-116, 85.1 µM (inactive). Moreover, the GI50 with LOX IMVI was 24.2 µM (inactive); in the assay on A549, > 100 µM (inactive); with NCI-H522, 88.5 µM (inactive); in the assay on TK-10, > 100 µM (inactive).
With `CCc1nc(N)nc(N)c1-c1ccc(N2CCNCC2)c([N+](=O)[O-])c1`, the GI50 is 36.6 µM (inactive) in the assay on SNB-75; 4.85 µM (inactive) in the assay with MDA-N; 11.5 µM (inactive) with HCC 2998; 22 µM (inactive) with SN12C; 8.59 µM (inactive) with SK-MEL-5; 64.3 µM (inactive) with CAKI-1. The GI50 with NCI-H226 was 65.9 µM (inactive); with KM12, 12 µM (inactive); in the assay with OVCAR-4, 32.7 µM (inactive); in the assay with IGROV-1 it was 7.55 µM (inactive); in the assay on 786-0, 5.2 µM (inactive); in the assay with HOP-92 it was 27.4 µM (inactive). Besides, the GI50 in the assay on MCF7 was 12.4 µM (inactive); with HCT-116 it was 1.77 µM (inactive); in the assay on LOX IMVI it was 3.48 µM (inactive); with SR, 4.35 µM (inactive); with A549 it was 3.09 µM (inactive); with NCI-H522, 24.4 µM (inactive). The GI50 with TK-10 is > 100 µM (inactive).
Take `CCCCCCCCCCCCCCCCNc1ccn(C2CC(O)C(COC(c3ccccc3)(c3ccccc3)c3ccc(OC)cc3)O2)c(=O)n1` (stereo unspecified): the GI50 in the assay on SNB-75 was > 100 µM (inactive); in the assay with MDA-N, > 100 µM (inactive); with HCC 2998, 83.6 µM (inactive); with SN12C, > 100 µM (inactive); in the assay on SK-MEL-5 it was > 100 µM (inactive); in the assay with CAKI-1, > 100 µM (inactive). The GI50 with NCI-H226, in the assay on KM12, with OVCAR-4, in the assay with IGROV-1, in the assay on 786-0 and in the assay on HOP-92 was > 100 µM (inactive) each time. Besides, the GI50 with MCF7 is > 100 µM (inactive); in the assay with HCT-116 it was 93.5 µM (inactive); with LOX IMVI, > 100 µM (inactive); in the assay with SR, 98.4 µM (inactive); in the assay with A549, > 100 µM (inactive); in the assay with NCI-H522 it was > 100 µM (inactive). In addition, in the assay on TK-10, the GI50 is > 100 µM (inactive).
